# Measurements taken from patent publication US20250195490A1, “ALPHA-METHYLENE AND AMINOMETHYL LACTONES AND LACTAMS FOR TREATMENT OF CLOSTRIDIOIDES DIFFICILE INFECTION (CDI)” (Purdue Research Foundation, priority 2022, published 2025).
# Assay: In vivo safety profile and toxicity (maximum tolerated dose) in mice
# Protocol: Aminomethyllactone 27 was evaluated for any possible toxicity at oral doses higher than the anticipated dose that will be used for antimicrobial efficacy. The maximum tolerated dose (MTD) in mice was calculated and was expected to be several folds higher than therapeutic dose. The MTD is a dose that produces neither mortality nor more than a 10% decrement in body weight nor clinical signs of toxicity or a significant change in renal and/or hepatic function in the survivors. Having shown that 10 mg/kg in mice is not toxic in our initial mouse model studies, 10, 25, 50, 100, 200, 400 mg/kg doses of 27 were chosen, each dose was given one time to one mouse, and the mice were observed daily for 14 days for body weight gain, clinical signs of abnormality, and renal and hepatic function.
# At the end of the study, all animals appeared to be healthy and have good body weight. They were then euthanized, and the major organ (heart, liver, lung, kidney, spleen, and intestines) tissues were harvested for histological examination of toxicity. The evaluator was blinded to the treatment status of each mouse at the time of examination. […] Overall, 27 appears to be non-toxic to mice.
smiles,measurement,setting,value
COc1cc(C2OC(=O)C(CN3CCCCC3)C2c2ccccc2Br)ccc1OCc1ccccc1 (racemic) [Compound 27],toxicity in initial mouse model studies,10 mg/kg in mice,not toxic
same,histological examination of major organ tissues,"heart, liver, lung, kidney, spleen, intestines, end of 14-day study",within normal histologic limits
same,toxicity to mice,"single oral doses 10, 25, 50, 100, 200, 400 mg/kg, observed 14 days",non-toxic
